According to ChEMBL document CHEMBL5291721, “A preclinical secondary pharmacology resource illuminates target-adverse drug reaction associations of marketed drugs” (Nat Commun, 2023):

Columns and labels:
[1] = biological target: T1, Amine oxidase [flavin-containing] A (Homo sapiens, UniProt P21397); type: functional
T1 sequence (P21397 whole entry): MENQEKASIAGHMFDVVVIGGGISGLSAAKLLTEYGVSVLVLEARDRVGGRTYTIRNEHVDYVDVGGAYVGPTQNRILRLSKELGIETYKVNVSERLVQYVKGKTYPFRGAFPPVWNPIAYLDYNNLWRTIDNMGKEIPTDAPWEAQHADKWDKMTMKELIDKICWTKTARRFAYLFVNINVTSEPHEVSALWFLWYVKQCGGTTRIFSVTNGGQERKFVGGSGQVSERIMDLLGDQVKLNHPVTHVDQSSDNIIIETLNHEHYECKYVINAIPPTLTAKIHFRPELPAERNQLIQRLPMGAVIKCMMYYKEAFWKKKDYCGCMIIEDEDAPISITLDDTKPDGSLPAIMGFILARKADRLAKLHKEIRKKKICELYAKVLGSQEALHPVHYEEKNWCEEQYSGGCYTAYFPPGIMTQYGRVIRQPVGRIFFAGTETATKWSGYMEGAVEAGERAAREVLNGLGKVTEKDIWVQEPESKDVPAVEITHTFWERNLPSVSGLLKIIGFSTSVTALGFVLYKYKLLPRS

[2] = biological target: T2, Alpha-2A adrenergic receptor (Homo sapiens, UniProt P08913); type: functional, cell-based
T2 sequence (P08913 whole entry): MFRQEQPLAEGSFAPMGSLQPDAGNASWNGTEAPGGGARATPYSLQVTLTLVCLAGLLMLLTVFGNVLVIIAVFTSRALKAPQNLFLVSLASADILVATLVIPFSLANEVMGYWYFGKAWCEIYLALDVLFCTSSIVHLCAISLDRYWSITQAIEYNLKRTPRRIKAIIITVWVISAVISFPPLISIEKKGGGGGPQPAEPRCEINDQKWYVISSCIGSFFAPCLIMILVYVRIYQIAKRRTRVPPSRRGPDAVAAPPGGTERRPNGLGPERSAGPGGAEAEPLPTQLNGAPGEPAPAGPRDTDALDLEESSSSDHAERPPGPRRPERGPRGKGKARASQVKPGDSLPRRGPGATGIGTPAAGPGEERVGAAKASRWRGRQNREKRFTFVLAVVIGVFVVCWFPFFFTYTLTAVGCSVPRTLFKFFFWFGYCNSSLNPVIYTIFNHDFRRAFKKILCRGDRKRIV

Vasopressin V2 receptor = Vasopressin V2 receptor (Homo sapiens, UniProt P30518)
Estrogen receptor = biological target: T3, Estrogen receptor (Homo sapiens, UniProt P03372)
T3 sequence (P03372 whole entry): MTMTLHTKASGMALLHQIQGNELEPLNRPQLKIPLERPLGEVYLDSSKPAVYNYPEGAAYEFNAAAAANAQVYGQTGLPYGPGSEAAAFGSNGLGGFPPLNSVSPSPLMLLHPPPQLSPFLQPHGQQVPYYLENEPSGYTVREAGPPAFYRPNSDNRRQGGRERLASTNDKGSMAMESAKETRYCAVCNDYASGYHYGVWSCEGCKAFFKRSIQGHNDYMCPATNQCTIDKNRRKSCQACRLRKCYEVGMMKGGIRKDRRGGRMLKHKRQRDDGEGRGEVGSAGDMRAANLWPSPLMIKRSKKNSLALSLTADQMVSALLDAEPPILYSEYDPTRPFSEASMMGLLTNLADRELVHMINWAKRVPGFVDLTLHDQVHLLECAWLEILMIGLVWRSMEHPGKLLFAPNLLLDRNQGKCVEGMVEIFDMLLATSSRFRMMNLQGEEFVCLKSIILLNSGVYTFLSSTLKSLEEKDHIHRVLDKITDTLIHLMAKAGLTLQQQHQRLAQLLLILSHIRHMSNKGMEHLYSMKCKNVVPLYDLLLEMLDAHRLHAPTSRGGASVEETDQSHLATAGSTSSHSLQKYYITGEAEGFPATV

[3] = biological target: Growth hormone secretagogue receptor type 1 (Homo sapiens, UniProt Q92847)
[4] = biological target: 5-hydroxytryptamine receptor 2B (Homo sapiens, UniProt P41595); type: functional, cell-based
[5] = biological target: T4, Equilibrative nucleoside transporter 1 (Homo sapiens, UniProt Q99808)
T4 sequence (Q99808 whole entry): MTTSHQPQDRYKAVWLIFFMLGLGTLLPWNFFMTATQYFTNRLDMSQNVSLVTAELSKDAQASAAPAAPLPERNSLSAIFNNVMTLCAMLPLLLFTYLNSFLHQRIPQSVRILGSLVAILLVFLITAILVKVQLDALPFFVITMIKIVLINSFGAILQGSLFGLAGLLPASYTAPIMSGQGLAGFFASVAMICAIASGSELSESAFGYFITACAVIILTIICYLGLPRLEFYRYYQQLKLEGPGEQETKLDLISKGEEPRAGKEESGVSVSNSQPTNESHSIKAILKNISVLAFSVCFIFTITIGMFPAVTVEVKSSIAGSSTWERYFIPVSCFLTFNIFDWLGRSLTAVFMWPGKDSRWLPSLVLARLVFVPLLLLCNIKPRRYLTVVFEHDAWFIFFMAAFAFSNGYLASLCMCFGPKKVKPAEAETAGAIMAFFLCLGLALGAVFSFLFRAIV

[6] = biological target: T5, 5-hydroxytryptamine receptor 1A (Homo sapiens, UniProt P08908); type: functional, cell-based
T5 sequence (P08908 whole entry): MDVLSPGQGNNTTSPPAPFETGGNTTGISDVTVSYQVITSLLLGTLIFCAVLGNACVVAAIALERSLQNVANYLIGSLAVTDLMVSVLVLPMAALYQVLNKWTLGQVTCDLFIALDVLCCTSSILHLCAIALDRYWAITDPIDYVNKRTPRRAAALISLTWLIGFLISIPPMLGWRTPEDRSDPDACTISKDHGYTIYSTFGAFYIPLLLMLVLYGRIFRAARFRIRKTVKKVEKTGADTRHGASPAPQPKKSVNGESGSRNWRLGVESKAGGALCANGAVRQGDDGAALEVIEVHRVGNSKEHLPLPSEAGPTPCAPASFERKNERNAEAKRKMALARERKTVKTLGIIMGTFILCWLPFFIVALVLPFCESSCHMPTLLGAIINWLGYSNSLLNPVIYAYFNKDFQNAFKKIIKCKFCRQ

[7] = biological target: Sodium-dependent noradrenaline transporter (Homo sapiens, UniProt P23975)
Further: assay procedure not described here.

Sequence of Growth hormone secretagogue receptor type 1 (Q92847 whole entry): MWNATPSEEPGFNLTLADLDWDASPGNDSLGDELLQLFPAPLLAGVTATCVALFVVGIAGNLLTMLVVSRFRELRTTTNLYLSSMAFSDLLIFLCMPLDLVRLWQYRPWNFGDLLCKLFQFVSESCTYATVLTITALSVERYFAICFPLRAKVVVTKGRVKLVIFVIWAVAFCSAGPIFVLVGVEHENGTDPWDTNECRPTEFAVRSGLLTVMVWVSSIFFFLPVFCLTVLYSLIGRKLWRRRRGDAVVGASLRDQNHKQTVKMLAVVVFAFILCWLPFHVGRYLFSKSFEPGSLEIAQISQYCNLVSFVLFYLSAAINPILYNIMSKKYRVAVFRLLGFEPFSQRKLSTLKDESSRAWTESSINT
Sequence of Sodium-dependent noradrenaline transporter (P23975 whole entry): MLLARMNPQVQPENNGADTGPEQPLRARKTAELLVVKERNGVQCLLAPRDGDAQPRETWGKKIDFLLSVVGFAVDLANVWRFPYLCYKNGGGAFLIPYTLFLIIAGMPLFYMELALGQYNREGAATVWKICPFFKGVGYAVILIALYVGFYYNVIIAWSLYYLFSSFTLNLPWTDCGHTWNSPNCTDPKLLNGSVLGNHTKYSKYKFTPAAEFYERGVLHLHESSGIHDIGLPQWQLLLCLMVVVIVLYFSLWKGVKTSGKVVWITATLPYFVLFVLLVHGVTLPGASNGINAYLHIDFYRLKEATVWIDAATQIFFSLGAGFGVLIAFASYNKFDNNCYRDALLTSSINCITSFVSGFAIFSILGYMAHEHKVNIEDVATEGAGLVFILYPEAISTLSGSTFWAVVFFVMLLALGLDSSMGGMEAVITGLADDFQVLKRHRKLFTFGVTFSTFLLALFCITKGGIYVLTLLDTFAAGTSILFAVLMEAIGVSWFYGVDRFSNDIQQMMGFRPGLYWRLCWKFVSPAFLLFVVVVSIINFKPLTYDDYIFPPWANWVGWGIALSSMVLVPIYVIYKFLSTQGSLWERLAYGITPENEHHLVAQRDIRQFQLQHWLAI
Sequence of 5-hydroxytryptamine receptor 2B (P41595 whole entry): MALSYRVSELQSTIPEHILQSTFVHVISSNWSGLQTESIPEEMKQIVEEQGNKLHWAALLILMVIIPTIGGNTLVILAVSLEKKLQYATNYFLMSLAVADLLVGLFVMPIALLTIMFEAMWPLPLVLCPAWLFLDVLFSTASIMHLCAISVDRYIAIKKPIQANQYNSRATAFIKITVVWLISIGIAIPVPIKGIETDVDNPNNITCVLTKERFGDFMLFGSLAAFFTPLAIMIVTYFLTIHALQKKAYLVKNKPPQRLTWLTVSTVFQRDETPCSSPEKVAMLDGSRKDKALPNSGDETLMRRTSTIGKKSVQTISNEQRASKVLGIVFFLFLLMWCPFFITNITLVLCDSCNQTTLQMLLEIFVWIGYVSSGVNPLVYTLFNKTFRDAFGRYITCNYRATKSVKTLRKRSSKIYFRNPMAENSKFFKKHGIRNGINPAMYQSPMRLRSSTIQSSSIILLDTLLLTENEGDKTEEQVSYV
Sequence of Vasopressin V2 receptor (P30518 whole entry): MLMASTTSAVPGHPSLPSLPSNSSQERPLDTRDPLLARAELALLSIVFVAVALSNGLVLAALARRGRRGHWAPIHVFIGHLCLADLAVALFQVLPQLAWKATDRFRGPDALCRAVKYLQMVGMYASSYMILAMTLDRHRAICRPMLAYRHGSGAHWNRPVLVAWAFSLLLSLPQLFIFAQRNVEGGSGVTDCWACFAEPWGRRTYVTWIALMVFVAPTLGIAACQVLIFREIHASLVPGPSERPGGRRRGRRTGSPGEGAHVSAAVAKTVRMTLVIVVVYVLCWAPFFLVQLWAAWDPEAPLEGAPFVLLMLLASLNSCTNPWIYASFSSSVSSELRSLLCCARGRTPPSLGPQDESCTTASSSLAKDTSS

| AC50 [1] [µM] | AC50 [2] [µM] | AC50 (Vasopressin V2 receptor) [µM] | AC50 (Estrogen receptor) [µM] | AC50 [3] [µM] | AC50 [4] [µM] | AC50 [5] [µM] | AC50 [6] [µM] | AC50 [7] [µM] | Structure (SMILES) |
| --- | --- | --- | --- | --- | --- | --- | --- | --- | --- |
| > 30 | > 10 | > 10 | > 10 | > 10 | > 10 | > 10 | > 10 | > 10 | NC[C@H]1O[C@H](O[C@H]2[C@H](O)[C@@H](O[C@H]3O[C@H](CO)[C@@H](O)[C@H](N)[C@H]3O)[C@H](N)C[C@@H]2N)[C@H](O)[C@@H](O)[C@@H]1O [KANAMYCIN] |
| > 10 | > 10 | > 10 | > 30 | > 10 | 17 | > 10 | > 10 | > 10 | COC(=O)C1=C(C)NC(C)=C(C(=O)OCC(C)C)C1c1ccccc1[N+](=O)[O-] (centres undefined) [NISOLDIPINE] |
| > 10 | > 10 | > 30 | > 30 | > 30 | > 10 | > 30 | > 10 | > 10 | CC(C)NCC(O)COc1ccc(COCCOC(C)C)cc1 (centres undefined) [BISOPROLOL] |
| > 30 | > 30 | > 30 | > 30 | > 30 | > 30 | > 30 | > 30 | > 30 | COC(=O)N[C@H](C(=O)N1CCC[C@H]1c1nc(-c2ccc(-c3ccc(-c4c[nH]c([C@@H]5CCCN5C(=O)[C@@H](NC(=O)OC)C(C)C)n4)cc3)cc2)c[nH]1)C(C)C |
| > 10 | > 10 | > 10 | > 10 | > 10 | > 10 | > 10 | > 10 | > 10 | CC(C)(C(=O)c1cccnc1)c1cccnc1 [METYRAPONE] |
| > 30 | > 30 | > 30 | > 30 | > 30 | > 30 | > 30 | > 30 | > 30 | NC(=O)c1ncn([C@@H]2O[C@H](CO)[C@@H](O)[C@H]2O)c1O [MIZORIBINE] |
| > 30 | > 30 | > 30 | > 30 | > 30 | > 30 | > 30 | > 30 | > 30 | COc1ccc2c(c1)C(=O)N(CCc1ccc(S(=O)(=O)NC(=O)NC3CCCCC3)cc1)C(=O)C2(C)C [GLIQUIDONE] |
| > 30 | > 30 | > 30 | > 30 | > 30 | > 30 | > 30 | > 30 | > 30 | N[C@@H](C(=O)N[C@@H]1C(=O)N2C(C(=O)O)=C(Cl)CS[C@H]12)c1ccccc1 [CEFACLOR ANHYDROUS] |

| Structure (SMILES) | AC50 [1] [µM] | AC50 [2] [µM] | AC50 (Vasopressin V2 receptor) [µM] | AC50 (Estrogen receptor) [µM] | AC50 [3] [µM] | AC50 [4] [µM] | AC50 [5] [µM] | AC50 [6] [µM] | AC50 [7] [µM] |
| --- | --- | --- | --- | --- | --- | --- | --- | --- | --- |
| CN(CCOc1ccc(NS(C)(=O)=O)cc1)CCc1ccc(NS(C)(=O)=O)cc1 [DOFETILIDE] | > 10 | > 30 | > 30 | > 30 | > 30 | > 30 | > 30 | > 30 | > 10 |
| Nc1nc(N)c2nc(-c3ccccc3)c(N)nc2n1 | > 30 | > 30 | > 30 | > 30 | > 30 | > 30 | > 30 | > 30 | > 30 |
| Oc1ncnc2[nH]ncc12 [ALLOPURINOL] | > 30 | > 10 | > 30 | > 30 | > 30 | > 10 | > 30 | > 10 | > 10 |
